Experimental data: patent US7211436B1, “Compositions and methods for regulating abscisic acid-induced closure of plant stomata” (The Penn State Research Foundation, priority 1999, dated 2007)

Tests used:
slow anion channels = assay: Whole-cell patch-clamp of guard cell protoplasts, anion channel activation; type: cell-based, Vicia faba
Experimental: Anion channel activation was measured in guard cell protoplasts. Whole-cell patch-clamp experiments were performed according to established methods. Pipette solution contained 100 mM KCl, 50 mM tetramethylammonium, 2 mM MgCl, 6.7 mM EGTA-(Tris)2, 3.35 mM CaCl2, 10 mM HEPES, pH=7.1 (Tris) and 5 mM Mg-ATP. Bath solution contained 40 mM CaCl2, 2 mM MgCl and 10 mM MES-Tris pH5.6. Osmolalities were adjusted with sorbitol to 500 mosmol/kg (in the pipette) or 470 mosmol/kg (in the bath). Protein kinase inhibitor K-252a (Calbiochem) was prepared as a stock solution at 2 mM in dimethyl sulfoxide (DMSO).

[1] = system: guard cells (stomatal aperture); assay: Stomatal closure in abaxial epidermal peels of transformed V. faba leaves; type: cell-based, Vicia faba; details: for change in half aperture of stomata, closure: 1 h, illuminated
Experimental: (§1) Analysis of AAPK mutants for stomatal aperture changes and anion channel activation. V. faba leaves were biolistically transformed with the pGFP, pAAPK-GFP, or pAAPK(K43A)-GFP constructs. The V. faba leaves were bombarded with gold particles (Bio-Rad) coated with one of the DNA constructs. Bombardment was via a particle delivery system 1000/He (Bio-Rad) as described. (J. Marc et al., 1998, Plant Cell 10:1927).
(§2) Abaxial epidermal peels were isolated and the transformed guard cells were assayed for ABA-mediated prevention of stomatal opening and for stomatal closure stimulated by ABA, CO2 or darkness. Conditions were as in Assman, S., and Baskin, T. (1998) J. Exp. Bot. 49:163 except that the incubation solution was 10 mM MES, 30 mM KCl, pH=6.1, with or without 50 μM {±} cis,trans-ABA. For closure experiments, the transformed leaves were illuminated with 0.20 mmol m^−2 s^−1 white light for 2.5 h to open the stomata. The abaxial epidermal peels were placed in incubation solution and treated with either darkness, 25 μM {±} cis,trans-ABA or with 700 ppm CO2 for 1 h.

AAPK = assay: Kinase activity of immunoprecipitated GFP fusion proteins with histone III-S as substrate; type: biochemical, Vicia faba; details: cells transfected with pAAPK-GFP; protoplasts treated with ABA prior to isolation of the proteins
From the text: Analysis of AAPK mutants and hybrid expression DNA constructs for ABA-activated protein kinase activity. 1.5×10^7 V. faba guard cell protoplasts were transfected with either the vector, pGFP, or the constructs, pAAPK-GFP or pAAPK(K43A)-GFP by polyethylene glycol (PEG)-mediated DNA transfer. After uptake and expression, protoplasts were lysed and recombinant protein was immunoprecipitated with anti-GFP peptide antibodies (Clontech) and protein A-Sepharose CL-4B (Amersham Pharmacia Biotech). Immunoprecipitated proteins were assayed for kinase activity using histone III-S (Sigma) as substrate.

[2] = system: guard cells (stomatal aperture); assay: ABA-mediated prevention of stomatal opening in abaxial epidermal peels of transformed V. faba leaves; type: cell-based, Vicia faba; details: ABA 50 μM, illuminated
Experimental: as §1, §2

native AAPK = assay: Native AAPK activity; type: biochemical, Vicia faba
Experimental: Isolation and Identification of ABA-Activated Protein Kinase (AAPK). Guard cell protoplasts (2×10^6; 99.6% pure) were prepared from Vicia faba. Protoplasts were treated with either darkness, ABA or elevated CO2 concentrations prior to protein isolation. Protoplast proteins were extracted and subjected to 2-dimensional gel electrophoresis. Separation was via 12% SDS-polyacrylamide gel electrophoresis (SDS-PAGE). Kinase autophosphorylation activity of subsequently renatured proteins was detected by established methods.

[3] = AAPK(K43A)-GFP transformed guard cells, ABA 25 μM or CO2 700 ppm
[4] = AAPK(K43A)-GFP, untransformed guard cells, ABA 25 μM or CO2 700 ppm

SMILES	effect on slow anion channels (slow anion channels; V. faba guard cells)	effect on anion current magnitude (slow anion channels; whole-cell configuration)	change in half aperture of stomata, closure [1, 3]	change in half aperture of stomata, closure [1, 4]	change in half aperture of stomata, closure ([1]; AAPK-GFP column, untransformed guard cells, ABA 25 μM)	change in half aperture of stomata, closure ([1]; AAPK-GFP transformed guard cells, ABA 25 μM)	change in half aperture of stomata, closure ([1]; GFP column, untransformed guard cells, ABA 25 μM)	change in half aperture of stomata, closure ([1]; GFP transformed guard cells, ABA 25 μM)	histone phosphorylation activity of immunoprecipitate after ABA treatment of protoplasts (AAPK)	change in half aperture of stomata, opening ([2]; AAPK(K43A)-GFP transformed guard cells)	change in half aperture of stomata, opening ([2]; AAPK(K43A)-GFP, untransformed guard cells)	change in half aperture of stomata, opening ([2]; AAPK-GFP column, untransformed guard cells)	change in half aperture of stomata, opening ([2]; AAPK-GFP transformed guard cells)	change in half aperture of stomata, opening ([2]; GFP column, untransformed guard cells)	change in half aperture of stomata, opening ([2]; GFP transformed guard cells)	effect on ABA regulation of anion channels (slow anion channels; untransformed cells)	effect on native AAPK activity (native AAPK)	effect on ABA-induced stomatal closure ([1]; kinase inhibitor, untransformed cells)
CC1=CC(=O)CC(C)(C)C1(O)/C=C/C(C)=C\C(=O)O (racemic) [ABA, abscisic acid]	activated	increased	−0.36 ± 0.26 (56) micrometers	−2.55 ± 0.21 (56) micrometers	−2.58 ± 0.24 (36) micrometers	−2.59 ± 0.30 (36) micrometers	−2.54 ± 0.35 (36) micrometers	−2.52 ± 0.29 (36) micrometers	significantly enhanced	0.42 ± 0.17 (46) micrometers	0.44 ± 0.15 (46) micrometers	0.41 ± 0.28 (36) micrometers	0.43 ± 0.22 (36) micrometers	0.45 ± 0.27 (36) micrometers	0.42 ± 0.22 (36) micrometers			
COC(=O)[C@@]1(O)C[C@H]2O[C@]1(C)n1c3ccccc3c3c4c(c5c6ccccc6n2c5c31)C(=O)NC4 [K-252a]																inhibits	inhibits	inhibits
O=C=O [CO2]			−2.23 ± 0.44 (36) micrometers	−2.31 ± 0.46 (36) micrometers														
